System in one assay: not listed separately
Kind of assay: DRUGMATRIX: beta-Lactamase enzyme inhibition (substrate: Nitrocefin). More on the design: species or system Bacillus cereus. To be noted: Not Active = under 50% inhibition at 10 µM.
Chain of Mu-type opioid receptor (P35372 whole entry): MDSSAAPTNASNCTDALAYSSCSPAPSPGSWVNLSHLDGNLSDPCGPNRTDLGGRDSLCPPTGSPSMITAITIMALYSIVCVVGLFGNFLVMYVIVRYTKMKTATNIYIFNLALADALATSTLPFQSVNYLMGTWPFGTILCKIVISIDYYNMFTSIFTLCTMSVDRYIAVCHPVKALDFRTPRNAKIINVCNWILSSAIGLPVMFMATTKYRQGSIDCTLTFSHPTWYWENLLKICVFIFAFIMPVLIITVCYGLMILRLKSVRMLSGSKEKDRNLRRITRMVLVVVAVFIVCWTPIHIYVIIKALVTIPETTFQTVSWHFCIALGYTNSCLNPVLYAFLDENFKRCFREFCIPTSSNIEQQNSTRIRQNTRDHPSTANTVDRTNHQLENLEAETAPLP
Chain of Epidermal growth factor receptor (P00533 whole entry): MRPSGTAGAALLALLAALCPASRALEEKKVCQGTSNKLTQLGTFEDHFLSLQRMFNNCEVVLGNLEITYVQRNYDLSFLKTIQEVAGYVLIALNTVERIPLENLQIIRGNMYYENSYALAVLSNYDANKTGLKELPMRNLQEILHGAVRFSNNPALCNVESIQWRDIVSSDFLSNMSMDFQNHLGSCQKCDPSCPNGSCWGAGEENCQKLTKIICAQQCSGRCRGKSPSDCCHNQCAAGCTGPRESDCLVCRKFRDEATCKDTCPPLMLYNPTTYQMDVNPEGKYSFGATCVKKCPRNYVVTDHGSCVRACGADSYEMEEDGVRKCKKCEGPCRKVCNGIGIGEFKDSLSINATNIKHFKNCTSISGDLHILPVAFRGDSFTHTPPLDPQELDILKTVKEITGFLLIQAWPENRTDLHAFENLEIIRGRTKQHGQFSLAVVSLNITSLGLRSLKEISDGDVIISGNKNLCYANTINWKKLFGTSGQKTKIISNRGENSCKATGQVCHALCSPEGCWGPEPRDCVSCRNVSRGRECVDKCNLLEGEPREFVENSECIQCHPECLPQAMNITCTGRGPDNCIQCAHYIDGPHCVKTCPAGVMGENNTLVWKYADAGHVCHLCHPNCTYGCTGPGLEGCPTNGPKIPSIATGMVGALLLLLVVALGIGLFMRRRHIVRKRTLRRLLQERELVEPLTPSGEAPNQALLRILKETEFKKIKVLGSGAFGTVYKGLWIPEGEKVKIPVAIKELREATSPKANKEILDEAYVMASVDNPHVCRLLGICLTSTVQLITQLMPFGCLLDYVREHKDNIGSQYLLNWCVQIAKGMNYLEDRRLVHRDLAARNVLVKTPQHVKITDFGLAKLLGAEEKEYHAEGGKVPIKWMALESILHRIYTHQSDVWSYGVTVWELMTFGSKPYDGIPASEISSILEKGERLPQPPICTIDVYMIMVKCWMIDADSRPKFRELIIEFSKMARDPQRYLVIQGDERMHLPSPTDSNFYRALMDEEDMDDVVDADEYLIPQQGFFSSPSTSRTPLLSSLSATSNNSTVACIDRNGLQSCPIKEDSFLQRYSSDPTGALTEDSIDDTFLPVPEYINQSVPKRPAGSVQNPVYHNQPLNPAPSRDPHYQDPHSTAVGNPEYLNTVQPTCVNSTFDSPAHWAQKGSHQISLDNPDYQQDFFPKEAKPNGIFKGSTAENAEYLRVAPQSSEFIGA
Turning to `CN1CCC[C@H]1c1cccnc1` [NICOTINE], the IC50 entry is listed as “Not Active” and the Ki entry is reported as “Not Active”.
For `Oc1c(Cl)cc(Cl)cc1Sc1cc(Cl)cc(Cl)c1O` [BITHIONOL], the IC50 result was “Not Active” and the Ki entry is listed as “Not Active”.

Another assay has as its target T1, D(4) dopamine receptor (Homo sapiens, UniProt P21917).
T1 sequence (P21917 whole entry): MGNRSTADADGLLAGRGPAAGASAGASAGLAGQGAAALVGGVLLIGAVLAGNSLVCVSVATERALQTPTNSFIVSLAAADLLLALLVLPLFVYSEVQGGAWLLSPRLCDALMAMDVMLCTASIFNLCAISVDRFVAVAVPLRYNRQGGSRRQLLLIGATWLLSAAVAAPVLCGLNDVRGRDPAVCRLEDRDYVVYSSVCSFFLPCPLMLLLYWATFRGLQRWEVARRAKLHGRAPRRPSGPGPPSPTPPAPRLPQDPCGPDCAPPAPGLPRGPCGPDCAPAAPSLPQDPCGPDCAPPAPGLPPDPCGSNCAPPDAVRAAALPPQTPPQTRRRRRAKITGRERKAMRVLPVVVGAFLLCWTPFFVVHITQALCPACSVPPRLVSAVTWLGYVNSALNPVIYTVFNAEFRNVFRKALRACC
Kind of assay: DRUGMATRIX: Dopamine D4.2 radioligand binding (ligand: [3H] Spiperone). Conditions: cho-k1; Not Active = under 50% inhibition at 10 µM. The format is cell membranes, CHO-K1, Membrane.
Take `CN1CCC[C@H]1c1cccnc1` [NICOTINE]: the IC50 result is listed as “Not Active”.
Turning to `Oc1c(Cl)cc(Cl)cc1Sc1cc(Cl)cc(Cl)c1O` [BITHIONOL], the IC50 result is “Not Active”.

The target of the next assay is Melanocortin receptor 4 (Homo sapiens, UniProt P32245). Also: in other assays of this panel Not Active means under 50% inhibition at 10 µM.
Chain of Melanocortin receptor 4 (P32245 whole entry): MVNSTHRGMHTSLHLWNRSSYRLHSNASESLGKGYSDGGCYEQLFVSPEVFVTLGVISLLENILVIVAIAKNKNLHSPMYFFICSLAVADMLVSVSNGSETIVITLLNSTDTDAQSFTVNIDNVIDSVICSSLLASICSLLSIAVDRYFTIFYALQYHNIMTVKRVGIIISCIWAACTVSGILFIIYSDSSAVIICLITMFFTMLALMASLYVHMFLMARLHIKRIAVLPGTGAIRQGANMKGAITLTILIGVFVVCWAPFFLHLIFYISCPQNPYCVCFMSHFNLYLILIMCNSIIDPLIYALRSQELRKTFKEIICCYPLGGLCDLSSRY
Assay: not given
The format is cell membranes, Membrane. Conditions: hek293.
`CN1CCC[C@H]1c1cccnc1` [NICOTINE]: the IC50 entry is recorded as “Not Active”.
The same measure, in the same setting: in the case of `Oc1c(Cl)cc(Cl)cc1Sc1cc(Cl)cc(Cl)c1O` [BITHIONOL] it was “Not Active”.

In the next assay the target is 5-hydroxytryptamine receptor 1B (Rattus norvegicus, UniProt P28564). Also: in other assays of this panel Not Active means under 50% inhibition at 10 µM.
Chain of 5-hydroxytryptamine receptor 1B (P28564 whole entry): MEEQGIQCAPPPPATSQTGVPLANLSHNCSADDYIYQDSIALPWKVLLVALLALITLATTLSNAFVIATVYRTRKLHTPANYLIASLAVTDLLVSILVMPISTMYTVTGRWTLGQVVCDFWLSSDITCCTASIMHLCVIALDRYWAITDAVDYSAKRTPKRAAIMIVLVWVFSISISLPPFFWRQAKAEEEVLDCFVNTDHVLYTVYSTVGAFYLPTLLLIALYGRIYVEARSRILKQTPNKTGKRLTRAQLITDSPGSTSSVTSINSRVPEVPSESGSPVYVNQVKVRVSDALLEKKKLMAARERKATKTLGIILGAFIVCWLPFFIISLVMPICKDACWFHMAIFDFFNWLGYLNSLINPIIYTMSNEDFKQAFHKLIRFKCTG
Assay: not given
The format is cell membranes, Wistar, Cerebral cortex, Membrane.
Conditions: not given
In the case of `CN1CCC[C@H]1c1cccnc1` [NICOTINE], the IC50 entry is “Not Active”.
As for `Oc1c(Cl)cc(Cl)cc1Sc1cc(Cl)cc(Cl)c1O` [BITHIONOL], the IC50 entry is on record as “Not Active”.

Another assay concerns the target Mu-type opioid receptor (Homo sapiens, UniProt P35372). In words: DRUGMATRIX: Opiate mu (OP3, MOP) radioligand binding (ligand: [3H] Diprenorphine). To be noted: Not Active = under 50% inhibition at 10 µM. The format is cell membranes, CHO-K1, Membrane.
`Oc1c(Cl)cc(Cl)cc1Sc1cc(Cl)cc(Cl)c1O` [BITHIONOL] returned a Ki of 2.24 µM.

The assay is the same for the next values; noted with them: Not Active = under 50% inhibition at 10 µM; read-out: IC50.
On to `Oc1c(Cl)cc(Cl)cc1Sc1cc(Cl)cc(Cl)c1O` [BITHIONOL], for which the IC50 was 5.51 µM.

The assay is the same for the next values; noted with them: cho-k1; Not Active = under 50% inhibition at 10 µM.
For `CN1CCC[C@H]1c1cccnc1` [NICOTINE], the IC50 entry is recorded as “Not Active”.

For the next assay, the target named is T2, Caspase-1 (Homo sapiens, UniProt P29466).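 Also: Caspase-1 enzyme inhibition assay with a peptide substrate; in other assays of this panel Not Active means under 50% inhibition at 10 µM.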
T2 sequence (P29466 whole entry): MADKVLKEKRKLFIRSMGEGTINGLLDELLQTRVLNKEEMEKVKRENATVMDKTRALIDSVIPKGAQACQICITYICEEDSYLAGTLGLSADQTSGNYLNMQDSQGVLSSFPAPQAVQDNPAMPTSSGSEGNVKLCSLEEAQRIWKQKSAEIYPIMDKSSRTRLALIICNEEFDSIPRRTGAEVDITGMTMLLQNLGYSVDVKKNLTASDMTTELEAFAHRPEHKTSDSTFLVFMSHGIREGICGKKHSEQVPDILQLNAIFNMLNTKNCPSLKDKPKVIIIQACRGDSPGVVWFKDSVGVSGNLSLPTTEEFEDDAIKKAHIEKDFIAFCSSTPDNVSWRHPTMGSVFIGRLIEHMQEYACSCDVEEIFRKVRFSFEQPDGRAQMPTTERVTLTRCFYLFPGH
Assay: not given
Also noted: species or system Escherichia coli.
Conditions: not given
For the compound `CN1CCC[C@H]1c1cccnc1` [NICOTINE], the IC50 result is on record as “Not Active”.
Still for that read-out and setting: in the case of `Oc1c(Cl)cc(Cl)cc1Sc1cc(Cl)cc(Cl)c1O` [BITHIONOL] it was “Not Active”.

System in a further assay: not listed separately
In words: DRUGMATRIX: Purinergic P2X radioligand binding (ligand: [3H] alpha, beta-Methylene-ATP). It is filed as cell membranes, Oryctolagus cuniculus, New Zealand albino, Urinary bladder, Membrane. To be noted: Not Active = under 50% inhibition at 10 µM.
As for `CN1CCC[C@H]1c1cccnc1` [NICOTINE], the IC50 entry was “Not Active” and the Ki result is reported as “Not Active”.
In the case of `Oc1c(Cl)cc(Cl)cc1Sc1cc(Cl)cc(Cl)c1O` [BITHIONOL], the IC50 result is reported as “Not Active” and the Ki entry was “Not Active”.

For the next assay, the target named is Beta-1 adrenergic receptor (Homo sapiens, UniProt P08588). In words: DRUGMATRIX: Adrenergic beta1 radioligand binding (ligand: [125I] Cyanopindolol). The format is cell membranes, CHO-K1, Membrane. Conditions: cho-k1; Not Active = under 50% inhibition at 10 µM.
Chain of Beta-1 adrenergic receptor (P08588 whole entry): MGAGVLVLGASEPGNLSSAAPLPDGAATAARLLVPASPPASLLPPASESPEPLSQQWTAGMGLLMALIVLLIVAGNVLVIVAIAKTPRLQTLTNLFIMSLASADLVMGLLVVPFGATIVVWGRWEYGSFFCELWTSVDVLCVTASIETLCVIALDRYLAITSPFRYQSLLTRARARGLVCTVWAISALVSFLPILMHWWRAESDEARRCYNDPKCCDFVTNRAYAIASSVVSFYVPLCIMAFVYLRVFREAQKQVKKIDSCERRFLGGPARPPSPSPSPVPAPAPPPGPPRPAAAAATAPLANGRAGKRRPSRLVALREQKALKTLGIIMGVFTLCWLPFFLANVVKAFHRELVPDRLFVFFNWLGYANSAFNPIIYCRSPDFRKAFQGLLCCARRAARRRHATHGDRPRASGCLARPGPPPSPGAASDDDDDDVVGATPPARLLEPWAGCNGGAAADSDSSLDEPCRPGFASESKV
Turning to `CN1CCC[C@H]1c1cccnc1` [NICOTINE], the IC50 entry is “Not Active”.
For `Oc1c(Cl)cc(Cl)cc1Sc1cc(Cl)cc(Cl)c1O` [BITHIONOL], the IC50 result is on record as “Not Active”.

A further assay has as its target Epidermal growth factor receptor (Homo sapiens, UniProt P00533). In words: DRUGMATRIX: Protein Tyrosine Kinase, EGF Receptor enzyme inhibition (substrate: Poly(Glu:Tyr)). It is filed as cell-based, Insect cells. Conditions: Not Active = under 50% inhibition at 10 µM; read-out: IC50.
Consider `Oc1c(Cl)cc(Cl)cc1Sc1cc(Cl)cc(Cl)c1O` [BITHIONOL], for which the IC50 was determined as 0.614 µM.

Still in this assay, the particulars now being: insect cells; Not Active = under 50% inhibition at 10 µM.
Regarding `CN1CCC[C@H]1c1cccnc1` [NICOTINE], the IC50 entry is reported as “Not Active”.

Another assay deals with Tyrosine-protein kinase Fyn (Homo sapiens, UniProt P06241). In words: biochemical. The format is cell-based, Insect cells. Conditions: insect cells.
Chain of Tyrosine-protein kinase Fyn (P06241 whole entry): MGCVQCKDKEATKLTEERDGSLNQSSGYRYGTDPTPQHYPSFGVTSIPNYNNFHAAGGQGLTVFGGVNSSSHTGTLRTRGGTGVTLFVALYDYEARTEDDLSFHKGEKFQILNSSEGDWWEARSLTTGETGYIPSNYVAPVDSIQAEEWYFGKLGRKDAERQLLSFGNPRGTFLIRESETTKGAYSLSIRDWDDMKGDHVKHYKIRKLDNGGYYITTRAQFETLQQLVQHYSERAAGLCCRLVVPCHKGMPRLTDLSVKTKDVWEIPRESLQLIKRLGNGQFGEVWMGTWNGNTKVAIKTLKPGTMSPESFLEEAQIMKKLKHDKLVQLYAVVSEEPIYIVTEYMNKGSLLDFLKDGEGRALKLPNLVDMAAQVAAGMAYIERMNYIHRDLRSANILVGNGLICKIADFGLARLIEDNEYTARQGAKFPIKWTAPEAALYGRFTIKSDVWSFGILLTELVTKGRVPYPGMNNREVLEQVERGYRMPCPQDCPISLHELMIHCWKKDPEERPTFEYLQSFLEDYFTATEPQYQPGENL
Regarding `CN1CCC[C@H]1c1cccnc1` [NICOTINE], the IC50 entry was “Not Active”.
Same read-out and setting: next, `Oc1c(Cl)cc(Cl)cc1Sc1cc(Cl)cc(Cl)c1O` [BITHIONOL]: “Not Active”.

For another assay, the target named is T3, Cysteinyl leukotriene receptor 1 (Homo sapiens, UniProt Q9Y271). Also: in other assays of this panel Not Active means under 50% inhibition at 10 µM.
T3 sequence (Q9Y271 whole entry): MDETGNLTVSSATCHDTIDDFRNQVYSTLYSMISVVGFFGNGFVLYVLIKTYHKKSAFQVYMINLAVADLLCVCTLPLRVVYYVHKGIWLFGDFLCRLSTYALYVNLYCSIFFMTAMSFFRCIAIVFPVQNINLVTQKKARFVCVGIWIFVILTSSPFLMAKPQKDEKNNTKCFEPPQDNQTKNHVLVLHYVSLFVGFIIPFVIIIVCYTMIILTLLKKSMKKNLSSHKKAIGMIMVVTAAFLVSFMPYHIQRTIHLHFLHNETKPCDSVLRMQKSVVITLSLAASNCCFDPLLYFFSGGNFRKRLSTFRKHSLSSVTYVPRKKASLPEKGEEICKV
Assay: not given
It is filed as cell membranes, CHO-K1, Membrane. Conditions: cho-k1.
For `CN1CCC[C@H]1c1cccnc1` [NICOTINE], the IC50 result is “Not Active”.
With `Oc1c(Cl)cc(Cl)cc1Sc1cc(Cl)cc(Cl)c1O` [BITHIONOL], the IC50 result was “Not Active”.

System in another assay: not listed separately
Kind of assay: DRUGMATRIX: Leukotriene, BLT (LTB4) radioligand binding (ligand: [3H]LTB4). The format is cell membranes, Membrane. To be noted: u-937; Not Active = under 50% inhibition at 10 µM.
As for `CN1CCC[C@H]1c1cccnc1` [NICOTINE], the IC50 entry is listed as “Not Active” and the Ki entry is recorded as “Not Active”.
For `Oc1c(Cl)cc(Cl)cc1Sc1cc(Cl)cc(Cl)c1O` [BITHIONOL], the IC50 entry is listed as “Not Active” and the Ki result is listed as “Not Active”.

The target of the next assay is T4, Cathepsin G (Homo sapiens, UniProt P08311).
T4 sequence (P08311 whole entry): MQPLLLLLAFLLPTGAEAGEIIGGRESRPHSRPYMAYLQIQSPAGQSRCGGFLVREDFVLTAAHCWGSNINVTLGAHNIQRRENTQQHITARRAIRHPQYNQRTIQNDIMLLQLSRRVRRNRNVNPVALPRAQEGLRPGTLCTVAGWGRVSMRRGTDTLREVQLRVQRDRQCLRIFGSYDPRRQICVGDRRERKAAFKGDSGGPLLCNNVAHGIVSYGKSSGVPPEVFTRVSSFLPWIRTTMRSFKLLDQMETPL
Assay: not given
The format is tissue-based. Conditions: neutrophil.
`CN1CCC[C@H]1c1cccnc1` [NICOTINE]: the IC50 entry is “Not Active”.
The same measure, in the same setting: next, `Oc1c(Cl)cc(Cl)cc1Sc1cc(Cl)cc(Cl)c1O` [BITHIONOL]: “Not Active”.

System in another assay: not listed separately
Kind of assay: DRUGMATRIX: Sigma2 radioligand binding (ligand: [3H] Ifenprodil). It is filed as cell membranes, Rattus norvegicus, Wistar, Brain, Membrane. To be noted: Not Active = under 50% inhibition at 10 µM.
`CN1CCC[C@H]1c1cccnc1` [NICOTINE]: the IC50 result is “Not Active” and the Ki entry is recorded as “Not Active”.
`Oc1c(Cl)cc(Cl)cc1Sc1cc(Cl)cc(Cl)c1O` [BITHIONOL]: the IC50 result was “Not Active” and the Ki entry is “Not Active”.

The target in a further assay is Melanocortin receptor 5 (Homo sapiens, UniProt P33032). Also: in other assays of this panel Not Active means under 50% inhibition at 10 µM.
Chain of Melanocortin receptor 5 (P33032 whole entry): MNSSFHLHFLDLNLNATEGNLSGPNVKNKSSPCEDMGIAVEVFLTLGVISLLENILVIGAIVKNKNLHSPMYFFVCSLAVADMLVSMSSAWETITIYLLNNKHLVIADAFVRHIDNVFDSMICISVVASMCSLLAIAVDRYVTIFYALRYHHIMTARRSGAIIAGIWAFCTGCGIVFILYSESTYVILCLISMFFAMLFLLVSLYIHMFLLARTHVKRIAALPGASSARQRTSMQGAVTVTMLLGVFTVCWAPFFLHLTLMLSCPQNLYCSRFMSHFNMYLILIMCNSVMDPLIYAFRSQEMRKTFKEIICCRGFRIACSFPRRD
Assay: not given
The format is cell membranes, HEK293, Membrane. To be noted: hek293.
Consider `CN1CCC[C@H]1c1cccnc1` [NICOTINE], for which the half-maximal inhibitory concentration (IC50) entry is “Not Active”.
On the same count and under the same terms, next, `Oc1c(Cl)cc(Cl)cc1Sc1cc(Cl)cc(Cl)c1O` [BITHIONOL]: “Not Active”.

Another assay deals with T5, 5-hydroxytryptamine receptor 2C (Homo sapiens, UniProt P28335).
T5 sequence (P28335 whole entry): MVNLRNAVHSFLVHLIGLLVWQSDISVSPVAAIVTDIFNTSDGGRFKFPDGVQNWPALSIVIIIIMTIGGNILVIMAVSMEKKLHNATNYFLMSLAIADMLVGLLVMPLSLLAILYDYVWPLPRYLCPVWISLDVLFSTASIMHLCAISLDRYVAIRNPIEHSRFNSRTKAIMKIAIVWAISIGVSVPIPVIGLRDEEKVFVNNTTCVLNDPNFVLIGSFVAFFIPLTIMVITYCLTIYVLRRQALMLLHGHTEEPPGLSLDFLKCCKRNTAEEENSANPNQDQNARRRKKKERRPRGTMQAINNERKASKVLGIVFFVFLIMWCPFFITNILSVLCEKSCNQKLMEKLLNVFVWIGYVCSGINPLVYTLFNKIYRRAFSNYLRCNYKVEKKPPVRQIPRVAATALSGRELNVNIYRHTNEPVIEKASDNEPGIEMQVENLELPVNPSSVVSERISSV
In words: DRUGMATRIX: Serotonin (5-Hydroxytryptamine) 5-HT2C radioligand binding (ligand: [3H] Mesulergine). It is filed as cell membranes, CHO-K1, Membrane. Conditions: Not Active = under 50% inhibition at 10 µM; read-out: IC50.
Consider `Oc1c(Cl)cc(Cl)cc1Sc1cc(Cl)cc(Cl)c1O` [BITHIONOL], for which the IC50 stood at 8.78 µM.

The same assay, now with this note: Not Active = under 50% inhibition at 10 µM; read-out: Ki.
As to `Oc1c(Cl)cc(Cl)cc1Sc1cc(Cl)cc(Cl)c1O` [BITHIONOL], the Ki stood at 4.6 µM.

The same assay, now with this note: cho-k1; Not Active = under 50% inhibition at 10 µM.
On to `CN1CCC[C@H]1c1cccnc1` [NICOTINE], for which the IC50 entry is reported as “Not Active”.

Source of the values: ChEMBL document CHEMBL1909046, “DrugMatrix in vitro pharmacology data”.
